# Data: patent US9212209B2, “Screening methods for spinal muscular atrophy” (Indiana University Research and Technology Corporation, priority 2012, dated 2015)
# Where “and” joins values, the source holds several entries; their conditions need not be identical. Identical values can stand only once. Like-named read-outs stand apart in the source and are kept apart here.
# Experiments:
# [1] = Solubility in PBS / aqueous solution; type: physicochemical
# SMA mice = test: SMA mice, intraperitoneal dosing: lifespan, weight, time to right; type: in vivo, mouse; conditions: for lifespan / weight of the treated animals: IP once daily post-natal day 1-10, compounds in 20% DMSO, words; for lifespan: 3-4 animals each; for Time to right: individual pup, raw data
# Experimental: The animal studies included new derivatives of LDN-76070 and LDN-75654. Mice were injected intraperitoneally once daily from post-natal day 1-10. […] Compounds LDN-212014, LDN-212016, LDN-212351, and LDN-212391 were injected into a cohort of animals (3-4 each). […] In the Kaplan-Meier curve that DMSO control decreased survival by 50%—the compounds were in […] (FIG. 26A).
# LDN-212014 and LDN-76070 were further tested in A7 SMA model mice. Mice were dosed using compounds dissolved in 100% DMSO injected at 20 mg/kg with each dose administered once daily by intraperitoneal injection. As shown in the black curves in the Kaplan-Meier plot, control animals lived 4-5 days longer than the DMSO vehicle treated animals, indicating toxicity. […] In fact, the compounds display a statistically significant increase in survival compared with the untreated animals. These compounds extend the lifespan of SMA mice despite the DMSO toxicity.
# In ‘time to right’ experiments, animals are placed on their backs and the duration for animals to right themselves is recorded. Animals that are unable to right in less than 30 seconds are scored as a failure. DMSO treated animals were unable to right themselves, while a small percentage of untreated animals display the ability to right themselves for up to postnatal day (PND) 11. A larger percentage of treated animals can right themselves past PND 17, and in the case of one animal as late as PND 21.
# SMN2-luciferase reporter = SMN2-luciferase reporter assay (clonal HEK-293 SMN2-luc cells); type: cell-based, human; conditions: for EC50 / Emax: Homo sapiens; for Emax: read-out: Max % Activity; for Maximum % activation: Table 7; for Max. fold increase: cell-based reporter response to known SMN2 modulating compounds
# Experimental: The reporter cell lines were plated at 50,000 cells per well in 96-well plates and incubated overnight. Compounds were added to each well and incubated at 37° C. overnight. The final DMSO concentration was 0.1%. Luciferase activity was assayed using either STEADYGLO (PROMEGA E2510) or DUALGLO (PROMEGA E2920) luciferase using the WALLAC ENVISION multilabel reader. For detailed assay conditions see Table 2A. All data points were transformed from CPS to percent increase over basal expression in the treated control wells (DMSO or H2O as appropriate).
# Plates were sealed with porous paper tape and incubated for 24 hours. […] For comparison, data points were transformed from CPS to percent activation over basal expression in the DMSO treated control wells.
# For comparison, all data points are expressed as percent increase over basal luciferase expression in the control cells.
# [2] = Liver microsome stability; conditions: for Stabilityin liver microsomes: Table 8; for Stability: Table 9; for half-life: mouse, liver microsomes
# [3] = system: SMN-luciferase transcripts; test: qRT-PCR of SMN-luciferase transcripts in SMN2-luc cells; type: cell-based, human; conditions: 24 hours, relative to DMSO, normalized to GAPDH, aclarubicin at 300 nM, words
# Experimental: Compounds were tested at three concentrations that display maximal activity in the luciferase assay. Cells were treated as described above for the luciferase assay. Cells were harvested by trypsinization, neutralized with trypsin inhibitor, and washed. RNA was isolated from the cells using TRIZOL Reagent (Invitrogen 15596-026). cDNA was generated using the IMPROM-II Reverse Transcription System (Promega A3801).
# The forward primer pair recognizes the exon 5-6 junction, which includes a restriction site that was engineered into the reporter and will exclude amplification of endogenous SMN mRNA. The reverse primers recognize either exon 7 or luciferase for detection of full-length or total SMN-luciferase transcripts respectively. For a reference control, cDNA from the housekeeping gene glyceraldehyde-3-phosphate dehydrogenase (GAPDH) was amplified. The primers used include SMN exon5-forward ([…]) (SEQ ID NO: 3), luciferase-reverse ([…]) (SEQ ID NO: 4), exon7-reverse ([…]) (SEQ ID NO: 5), GAPDH-reverse (G3A) ([…]) (SEQ ID NO: 6) and GAPDH-forward (G3S) ([…]) (SEQ ID NO: 7). qPCR was performed as described in the protocol for iQ SYBRGREEN SUPERMIX (Biorad 170-8882) using an EPPENDORF Mastercycler ep realplex^4 Thermo Cycler. Reactions were incubated for a 10 minute, 94° C. hot start followed by 45 cycles of the following: 94° C. for 45 second, 60° C. for 15 seconds, 72° C. for 45 seconds. Melting curves for each reaction were obtained. Each sample was assayed in triplicate and every plate contained a 5-point cDNA dilution course to calculate amplification efficiency for each primer pair. The Pfaffl method was used to determine the change in transcript levels relative to the DMSO and normalized to GAPDH (Pfaffl, M. W., “A new mathematical model for relative quantification in real-time RT-PCR,” Nucleic Acids Res 2001, 29(9), 3e45).
# Based on the new reporter design, it was predicted that this screen could detect increased SMN-luciferase protein levels caused by compounds that stimulate SMN2 transcription, exon 7 inclusion, or by increasing the half-life of the SMN mRNA or protein. Quantitative reverse transcriptase PCR (qRT-PCR) was used to analyze SMN-luciferase mRNAs. All assays used RNA from control and compound-treated SMN2-luc cells and primers pairs were chosen to amplify only the SMN-luciferase derived transcripts (FIG. 4A). A pair of primers were used that specifically detects both full-length (exon 7 included) and Δ7 (exon 7 excluded) SMN-luciferase transcripts (primers 1 and 3). To measure changes in exon 7 splicing efficiency, a primer pair was used that detects only the full-length (exon 7 included) SMN-luciferase transcript (primers 1 and 2).
# For each sample, the percent increase in the amount of total SMN-luciferase transcripts (gray bar) and exon 7 included full-length SMN-luciferase transcripts (white bar) was plotted (FIG. 4). Compounds that increase transcription should show increased total SMN-luciferase transcripts (gray bar) with a proportional increase for exon 7 included transcripts (white bar), assuming that proper splicing of exon 7 is not rate limiting. Compounds that stimulate exon 7 inclusion should increase the amount of exon 7 included full-length transcript (white bar) detected with little to no change in the expression of total SMN-luciferase transcripts (gray bar). In these experiments, cells were treated with compound, harvested, and each cell pellet was divided for isolation of RNA and to assay luciferase activity. Each qRT-PCR sample was normalized to the housekeeping gene glyceraldehyde-3-phosphate dehydrogenase (GAPDH). The Pfaffl method was used to calculate the change in the amount of total SMN mRNA and determine whether compound treatments increased SMN transcripts.
# [4] = PBS, aqueous buffer, read-out: Maximal solubility in PBS
# [5] = aqueous solution, Table 8, grades, read-out: Solubility in aqueous solution
# [6] = HEK293, Table 7, read-out: EC50
# [7] = HEK293, reporter assay, Table 6, read-out: Ec50
# [8] = HEK293, reporter assay, Table 6
# [9] = T1/2 in liver microsomes, Table 7
# [10] = HEK293, cell-based reporter, known SMN2 modulating compounds, read-out: EC50
SMILES,"solubility [1, 4]","solubility [1, 5]",lifespan (SMA mice),weight of the treated animals (SMA mice),Time to right (SMA mice; PND 6),Time to right (SMA mice; PND 7),Time to right (SMA mice; PND 8),Time to right (SMA mice; PND 9),Time to right (SMA mice; PND 10),Time to right (SMA mice; PND 11),Time to right (SMA mice; PND 12),Time to right (SMA mice; PND 13),Time to right (SMA mice; PND 14),Time to right (SMA mice; PND 15),Time to right (SMA mice; PND 16),Time to right (SMA mice; PND 17),Time to right (SMA mice; PND 18),EC50 (SMN2-luciferase reporter; [7]),"Active (SMN2-luciferase reporter; reporter assay, Table 6)",Stabilityin liver microsomes [2],other results
COc1cc2c(c(OC)c1OC)C(c1cc(Cl)ccc1F)CC(=O)N2 (stereo not shown) [LDN-212351],500 µM,< 500 µM,extension of lifespan,increased,dead and Fail (Fail = >30 sec) (2×) and 3 seconds,dead and Fail (Fail = >30 sec) (2×) and 5 seconds,dead and Fail (Fail = >30 sec) (3×),dead and 13 seconds and Fail (Fail = >30 sec) (2×),dead and Fail (Fail = >30 sec) (3×),dead (3×) and Fail (Fail = >30 sec),dead (3×) and Fail (Fail = >30 sec),dead (3×) and Fail (Fail = >30 sec),dead (3×) and Fail (Fail = >30 sec),dead,dead,dead,dead,12 µM,Yes,45 min,"Time to right (SMA mice; PND 19): dead; Time to right (SMA mice; PND 20): dead; EC50 (SMN2-luciferase reporter; [6]): 9.8 µM; Emax (SMN2-luciferase reporter; [8]): 150%; Maximum % activation (SMN2-luciferase reporter): 168.5 ± 10.6%; Stability [2]: 45 min; half-life [2, 9]: 45 min; half-life ([2]; t1/2 in mouse liver microsomes, mouse liver microsomes): 45 min"
O=C(Nc1ncc(C2(O)CCC2)s1)c1nc2ccccc2[nH]1 [LDN-214098],–,> 2000 µM,–,–,–,–,–,–,–,–,–,–,–,–,–,–,–,0.15 µM,Yes,59 min,Emax (SMN2-luciferase reporter; [8]): 200%
"CC(C(=O)O)c1ccc(N2Cc3ccccc3C2=O)cc1 (stereo not shown) [Indoprofen, indoprofen, reference compound]",–,–,–,–,–,–,–,–,–,–,–,–,–,–,–,–,–,–,–,–,exon 7 included full-length SMN-luciferase transcripts [3]: No consistent change; total SMN-luciferase transcripts [3]: No consistent change; EC50 (SMN2-luciferase reporter; [10]): 0.46 µM; Max. fold increase (SMN2-luciferase reporter): 3 fold
COc1cc2c(c(OC)c1OC)C(c1cc(Cl)ccc1F)NC(=O)N2 (stereo not shown) [LDN-212391],1000 µM,500 to 2000 µM,extension of lifespan,increased,Fail (Fail = >30 sec),Fail (Fail = >30 sec),Fail (Fail = >30 sec),Fail (Fail = >30 sec) (2×) and 18 seconds,Fail (Fail = >30 sec) (2×) and 20 seconds,Fail (Fail = >30 sec),dead and Fail (Fail = >30 sec) (2×),dead and Fail (Fail = >30 sec) (2×),dead and Fail (Fail = >30 sec) (2×),dead and Fail (Fail = >30 sec) (2×),dead (2×) and Fail (Fail = >30 sec),dead (2×) and Fail (Fail = >30 sec),dead (2×) and Fail (Fail = >30 sec),4.4 µM,Yes,13 to 20 min,"Time to right (SMA mice; PND 19): dead (2×) and Fail (Fail = >30 sec); Time to right (SMA mice; PND 20): dead; EC50 (SMN2-luciferase reporter; [6]): 5 µM; Maximum % activation (SMN2-luciferase reporter): 238.3 ± 28.5%; Max % Activity (SMN2-luciferase reporter; reporter assay, Table 6): 267%; Stability [2]: 13 to 20 min; half-life [2, 9]: 13 min"
"CCCC(CCC)C(=O)O [Valproic Acid, valproic acid]",–,–,–,–,–,–,–,–,–,–,–,–,–,–,–,–,–,–,–,–,exon 7 included full-length SMN-luciferase transcripts [3]: increases; total SMN-luciferase transcripts [3]: increases; exon 7 included full-length SMN-luciferase transcripts ([3]; listed as VPA): increased; total SMN-luciferase transcripts ([3]; listed as VPA): increased; EC50 (SMN2-luciferase reporter; [10]): 10000 µM; Max. fold increase (SMN2-luciferase reporter): 2.5 fold
